In series [1] the test system is NIH3T3. The series is described as follows: Wound healing activity in Swiss albino mouse 3T3 cells assessed as cell migration-associated increase in cell number at 20 uM after 12 hrs by scratch assay. The class given is functional, cell-based.
Series [2] has as its system NIH3T3. Kind of series: Cytotoxicity against Swiss albino mouse 3T3 cells at 10 to 20 uM. The class given is cell-based. To be noted: nih3t3, 20 µM.
Series [3] concerns NIH3T3. The series is described as follows: Wound healing activity in Swiss albino mouse 3T3 cells assessed as cell migration-associated increase in cell number at 1 uM after 12 hrs by scratch assay. The class given is functional, cell-based.
In series [4] the test system is NIH3T3. Kind of series: Wound healing activity in Swiss albino mouse 3T3 cells assessed as cell migration-associated increase in cell number at 10 uM after 12 hrs by scratch assay. It counts as functional, cell-based.
Series [5] concerns Jurkat. Kind of series: Inhibition of TNF-alpha-induced NFkappaB activity in human Jurkat cells at 10 uM after 24 hrs by EMSA. It counts as cell-based. For orientation: Mobility shift assays separate free from complexed probe on a gel.

The values below come from ChEMBL document CHEMBL1811894, “Structural and conformational analysis of proanthocyanidins from Parapiptadenia rigida and their wound-healing properties” (J Nat Prod, 2011).

Activity calls are given as the source filed them. The rule behind the calls is not given here.

Take `COc1c(O)cc([C@H]2Oc3cc(O)cc(O)c3[C@@H](c3c(O)cc(O)c4c3O[C@H](c3cc(O)c(OC)c(O)c3)[C@@H](O)C4)[C@@H]2O)cc1O`: the result in series [1] and in series [4] was inactive. In addition, the Activity result in series [2] is “Toxic”. Moreover, in series [3], the result was Active.

On to `COc1c(O)cc([C@H]2Oc3c(c(O)cc(O)c3[C@H]3c4c(O)cc(O)cc4O[C@H](c4ccc(O)c(O)c4)[C@@H]3O)C[C@@H]2O)cc1O`, for which the result in series [1] and in series [4] was inactive. The Activity entry in series [2] is listed as “Toxic”. Also, the outcome in series [3] was Active.

Turning to `COc1c(O)cc([C@H]2Oc3c(c(O)cc(O)c3[C@H]3c4c(O)cc(O)cc4O[C@H](c4cc(O)c(O)c(O)c4)[C@@H]3O)C[C@@H]2O)cc1O`, the result in series [1] and in series [4] was inactive. For the same molecule, the Activity entry in series [2] is “Toxic”. For the same molecule, in series [5], the inhibition result was “Active”. Also, in series [3], the outcome was Active.
